According to PMC6696021, “Combined Ensemble Docking and Machine Learning in Identification of Therapeutic Agents with Potential Inhibitory Effect on Human CES1” (Molecules, 2019):
Where two headings read alike, the source gives them in different places.

Assays:
Recombinant human CES1 = target: T1, Recombinant human CES1 (Homo sapiens, UniProt P23141); assay: In vitro assessment of CES1 inhibition (p-nitrophenyl acetate hydrolysis); format: biochemical; settings: for inhibition at 600 µM: read-out: inhibition at max concentration
T1 construct: purchased BD Gentest (Woburn, MA, US)
T1 sequence (P23141 18-567): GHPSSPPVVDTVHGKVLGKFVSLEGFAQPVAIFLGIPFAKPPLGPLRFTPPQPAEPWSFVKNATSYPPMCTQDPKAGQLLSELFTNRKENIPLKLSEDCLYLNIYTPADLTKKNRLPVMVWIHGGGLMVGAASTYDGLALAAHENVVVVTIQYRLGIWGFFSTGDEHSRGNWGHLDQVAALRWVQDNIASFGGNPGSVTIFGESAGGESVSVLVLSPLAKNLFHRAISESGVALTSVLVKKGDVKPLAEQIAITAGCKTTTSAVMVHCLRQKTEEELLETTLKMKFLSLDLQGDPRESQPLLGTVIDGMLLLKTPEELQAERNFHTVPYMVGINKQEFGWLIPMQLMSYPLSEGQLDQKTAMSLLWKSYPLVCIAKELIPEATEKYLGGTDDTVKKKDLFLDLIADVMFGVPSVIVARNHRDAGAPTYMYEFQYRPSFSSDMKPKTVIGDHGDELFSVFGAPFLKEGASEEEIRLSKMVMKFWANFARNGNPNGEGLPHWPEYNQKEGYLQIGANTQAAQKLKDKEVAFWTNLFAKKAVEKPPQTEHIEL

[1] = Solubility in aqueous assay buffer; format: physicochemical; settings: pH 7
CES1 = target: CES1; set-up: method as in earlier work; settings: Table S1, bioactivity from ChEMBL database; read-out: Ki_Nanomolar; cited from earlier work
[2] = substrate p-nitrophenyl acetate 100 µM, 37 °C, 3 min, NS means Non-significant, read-out: IC50
[3] = substrate p-nitrophenyl acetate 100 µM, 37 °C, 3 min, NS means Non-significant

**Q.** With `CN1[C@@H]2CC[C@H]1C[C@@H](OC(c1ccccc1)c1ccccc1)C2` [Benztropine] as the molecule, how does the IC50 (Recombinant human CES1; [2]) read?
**A.** The IC50 was 298 µM.

**Q.** Which results are given for `C[N+]1(C)CCCC(OC(=O)C(O)(c2ccccc2)c2ccccc2)C1` (centres unmarked) [Mepenzolate]?
**A.** inhibition at 600 µM (Recombinant human CES1; max concentration 600 µM): ~15%; IC50 (Recombinant human CES1; [3]): > 600 µM

**Q.** Which IC50 (Recombinant human CES1) does the source give for `C=CCN1CC[C@]23c4c5ccc(O)c4O[C@H]2C(=O)CC[C@@]3(O)[C@H]1C5` [Naloxone] here?
**A.** Its IC50 is 618 µM.

**Q.** For `Oc1ccc2c3c1O[C@H]1[C@@H](O)CC[C@@]4(O)[C@@H](C2)N(CC2CCC2)CC[C@]314` [Nalbuphine], which “solubility in aqueous buffer” value [1] is on record?
**A.** The value was “lacked the required solubility”.

**Q.** For `CC#CCC(C)[C@H](O)/C=C/[C@@H]1[C@H]2C/C(=C/CCCC(=O)O)C[C@H]2C[C@H]1O` (some centres unmarked) [Iloprost], which IC50 (Recombinant human CES1; [2]) is on record?
**A.** Its IC50 is 367 µM.

**Q.** Which results are given for `O=C(O[C@H]1C[C@H]2CC[C@@H](C1)[N+]21CCCC1)C(O)(c1ccccc1)c1ccccc1` [Trospium]?
**A.** inhibition at 600 µM (Recombinant human CES1): 30%; IC50 (Recombinant human CES1; [3]): > 600 µM

**Q.** Which IC50 (Recombinant human CES1; [2]) does the source give for `COc1ccc([C@@H]2Sc3ccccc3N(CCN(C)C)C(=O)[C@@H]2OC(C)=O)cc1` [Diltiazem] here?
**A.** Its IC50 is 13.9 µM.

**Q.** With `CCCCC[C@H](O)CC[C@@H]1[C@H]2Cc3cccc(OCC(=O)O)c3C[C@H]2C[C@H]1O` [Treprostinil] as the molecule, how does the IC50 (Recombinant human CES1; [2]) read?
**A.** The IC50 was 392 µM.

**Q.** For `COc1cccc(C(=O)C(=O)c2cccc(OC)c2)c1` [CHEMBL435109], which Ki (CES1) is on record?
**A.** The Ki was 1.54 µM.

**Q.** For `O=C1Nc2ccc(Br)cc2C1=O` [CHEMBL115897], which Ki (CES1) is on record?
**A.** Its Ki is 31.7 µM.

**Q.** Which Ki (CES1) does the source give for `O=C(C(=O)c1cc(F)cc(F)c1)c1cc(F)cc(F)c1` [CHEMBL193229] here?
**A.** The Ki was 0.0797 µM.

**Q.** For `O=S(=O)(Nc1ccc(NS(=O)(=O)c2ccc(Cl)cc2)cc1)c1ccc(Cl)cc1` [CHEMBL254426], which Ki (CES1) is on record?
**A.** The Ki was 13.7 µM.

**Q.** With `C[C@H]1CN(C[C@H](Cc2ccccc2)C(=O)NCC(=O)O)CC[C@@]1(C)c1cccc(O)c1` [Alvimopan] as the molecule, how does the “inhibition at the highest concentration” value (Recombinant human CES1; highest concentration tested) read?
**A.** Its value is “no inhibition”.

**Q.** What about the IC50 (Recombinant human CES1; [2]) of the same molecule?
**A.** The IC50 was > 600 µM.

**Q.** For `Cc1ccc(NCN2C(=O)C(=O)c3ccccc32)cc1` [CHEMBL222851], which Ki (CES1) is on record?
**A.** Its Ki is 2.65 µM.

**Q.** For `CCCCCCSCC(=O)C(F)(F)F` [CHEMBL440542], which Ki (CES1) is on record?
**A.** Its Ki is 0.168 µM.

**Q.** With `CCCC(=O)C(=O)c1ccccc1` [CHEMBL1812861] as the molecule, how does the Ki (CES1) read?
**A.** Its Ki is 0.102 µM.

**Q.** For `O=C1C(=O)N(Cc2ccc(Cl)c(Cl)c2)c2ccccc21` [CHEMBL375126], which Ki (CES1) is on record?
**A.** Its Ki is 0.031 µM.
